According to patent US11827624B2, “Covalent immune recruiter compounds for immune cell recognition and associated uses” (McMaster University, priority 2020, dated 2023):

Tested on: PSMA+HEK cells
Assay: Luminescence ADCC reporter (CD16α activation) assay with mmAb
Format: cell-based, human
Conditions: antibody 10^−7-10^−9 M
Protocol: Covalent vs. non-covalent antibody recruitment were compared in functional immune assays. Activation of NK cell CD16α immune receptors was assessed via luminescence based ADCC assays. ADCC was quantified using the ADCC Reportor Bioassay kit (Promega G7010). All ADCC induced luminescence was measured on a SpectraMax i3 plate reader (Molecular Devices). The human IgG isotype control used was purchased from Jackson ImmunoResearch (009-000-003). The human IgG1 monoclonal anti-DNP antibody (mAb) was purchased from Acrobiosystems (DNP-M2). Human IgG from serum was purchased from Innovative Research ([…]1000MG). Anti-DNP depleted serum was made from human IgG from serum (Innovative Research). For PSMA competition controls, 2-PMPA was purchased from Sigma (SML1612). Hek-293T (PSMA+/−) cell lines were generously given by Dr. Cyril Barinka (Institute of Biotechnology CAS, Czech Republic). Ultra low IgG FBS was purchased from Fischer Scientific (A3381901). RPMI-1640 was purchased as a powder from Fischer Scientific (31800089) and resuspended. DMEM was purchased as a powder from Fischer Scientific (12800082) and resuspended. Pen/Strep was purchased from Fischer Scientific (15140-122). FBS was purchased from Fischer Scientific (12484-028). Zeocin was purchased from Fischer Scientific (R25001). HEK-PSMA cells were cultured in DMEM media with 2 mM L-glut, 1% Pen/Strep, 10% FBS, 50 ug/mL Zeocin. HEK cells were cultured in DMEM media with 2 mM L-glut, 1% Pen/Strep, 10% FBS.
Preparation of antibody-CIR/ARM stocks were mixed overnight prior to addition to the ADCC plate. In the case of mmAb and mAb, incubation was carried out at 600 nM antibody and 1.2 μM CIR or ARM. In the case of IgG from serum, incubation was completed at 230 μM antibody and 8.7 μM CIR or ARM. In all cases, DMSO was kept close to 1%. After the overnight incubation, a dilution series was completed on the antibody-CIR/ARM stocks in RPMI (1% DMSO). […] 75 μL of Bio-Glo Luciferase Assay Reagent was added to each well, and luminescence was quantified using the SpectraMax i3 plate reader. […]

Compound | CD16α based target immune recognition
O=C(O)CC[C@H](NC(=O)N[C@@H](CCCCNC(=O)NCCOCCOCCOCCOCCOCCOCCOCCOC(=O)n1cnc(CCn2cc(CNc3ccc([N+](=O)[O-])cc3[N+](=O)[O-])nn2)c1)C(=O)O)C(=O)O [CIR 5] | robust target immune recognition
O=C(O)CC[C@H](NC(=O)N[C@@H](CCCCNC(=O)NCCOCCOCCOCCOCCOCCOCCOCCOC(=O)NCCOCCn1cc(CNc2ccc([N+](=O)[O-])cc2[N+](=O)[O-])nn1)C(=O)O)C(=O)O [ARM 12, reference compound] | largely unable to mediate immune recognition of target HEK cells
